Experimental data from US20250382344A1, “Soluble GLP1/GIP/NPY2 Receptor Triple Agonists” (Boehringer Ingelheim International GmH, priority 2024, published 2025).
pEC50: −log10 of the molar value.

How the values were obtained:
[1] = biological target: T1, hGIPR (Homo sapiens, UniProt P48546); test: hGIPR CreLuc assay in 0.5% and 100% plasma (CHO CRE-luciferase reporter cells); assay type: cell-based; conditions: 0.5% human plasma, read-out: hGIPR 0.5% hP
T1 construct: expressed in transfected cells; host or cells: CHO CRE-luciferase reporter cells
T1 sequence (P48546 22-466): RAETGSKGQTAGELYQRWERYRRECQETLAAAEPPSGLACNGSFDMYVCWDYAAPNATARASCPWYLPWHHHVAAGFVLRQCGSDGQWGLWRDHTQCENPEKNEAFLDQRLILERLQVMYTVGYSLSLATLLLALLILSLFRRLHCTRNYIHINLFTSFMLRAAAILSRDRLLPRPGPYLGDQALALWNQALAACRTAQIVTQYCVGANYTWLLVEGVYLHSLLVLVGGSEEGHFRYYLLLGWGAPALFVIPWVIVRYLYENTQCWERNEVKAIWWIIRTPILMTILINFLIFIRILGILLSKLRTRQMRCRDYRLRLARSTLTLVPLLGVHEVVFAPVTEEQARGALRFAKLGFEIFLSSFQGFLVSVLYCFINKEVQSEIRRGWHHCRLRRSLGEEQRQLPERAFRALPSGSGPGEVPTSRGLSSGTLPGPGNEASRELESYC

[2] = Solubility in 0.1 M phosphate buffer at pH 7; assay type: physicochemical; conditions: 0.1 M phosphate buffer at pH 7, 10 mg/mL final peptide concentration, shaking 2 hours at room temperature, peptides as TFA-salts; measured sample pH 6.5-7.0
[3] = biological target: T2, hGLP1R (Homo sapiens, UniProt P43220); test: hGLP1R CreLuc assay in 0.5% and 100% plasma (HEK-293 CRE-luciferase reporter cells); assay type: cell-based; conditions: 0.5% human plasma, HEK-293 reporter cells, read-out: hGLP1R 0.5% hP
T2 construct: expressed in transfected cells; host or cells: HEK-293 CRE-luciferase reporter cells
T2 sequence (P43220 24-463): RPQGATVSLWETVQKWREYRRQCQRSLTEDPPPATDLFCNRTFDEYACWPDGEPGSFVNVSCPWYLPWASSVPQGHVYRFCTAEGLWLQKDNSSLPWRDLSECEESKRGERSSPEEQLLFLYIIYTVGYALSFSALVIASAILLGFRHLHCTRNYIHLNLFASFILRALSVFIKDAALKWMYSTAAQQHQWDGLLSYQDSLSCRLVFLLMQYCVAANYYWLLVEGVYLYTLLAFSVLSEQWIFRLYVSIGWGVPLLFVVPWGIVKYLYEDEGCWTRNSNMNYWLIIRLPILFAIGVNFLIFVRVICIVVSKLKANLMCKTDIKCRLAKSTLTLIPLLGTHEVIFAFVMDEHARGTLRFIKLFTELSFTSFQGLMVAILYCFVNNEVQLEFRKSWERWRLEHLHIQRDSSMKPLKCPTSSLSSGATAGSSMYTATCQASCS

pEC50 [1]	solubility at 2 h [2] [µg/mL]	pEC50 [3]	Compound
10.00	9800	9.70	CC[C@H](C)[C@H](NC(=O)[C@H](CC(C)C)NC(=O)[C@H](Cc1c[nH]cn1)NC(=O)[C@H](CCCNC(=N)N)NC(=O)[C@@H](NC(=O)[C@H](Cc1ccccc1)NC(=O)[C@H](C)NC(=O)C(C)(C)NC(=O)[C@H](CCC(N)=O)NC(=O)[C@H](C)NC(=O)[C@H](CCC(N)=O)NC(=O)[C@H](CCCCN)NC(=O)[C@H](CCC(=O)O)NC(=O)[C@H](CC(C)C)NC(=O)C(C)(C)NC(=O)[C@@H](NC(=O)[C@H](CO)NC(=O)[C@H](Cc1ccc(O)cc1)NC(=O)[C@H](CC(=O)O)NC(=O)[C@H](CO)NC(=O)[C@@H](NC(=O)[C@H](Cc1ccccc1)NC(=O)[C@@H](NC(=O)CNC(=O)[C@H](CCC(=O)O)NC(=O)C(C)(C)NC(=O)[C@@H](N)Cc1ccc(O)cc1)[C@@H](C)O)[C@@H](C)O)[C@@H](C)CC)C(C)C)C(=O)N[C@@H](CC(N)=O)C(=O)N[C@@H](CCCCNC(=O)CCCCCNC(=O)CCCCCNC(=O)CC[C@H](NC(=O)CC[C@H](NC(=O)CC[C@H](NC(=O)CC[C@H](NC(=O)CC[C@H](NC(=O)CCCCCCCCCCCCCCCCC(=O)O)C(=O)O)C(=O)O)C(=O)O)C(=O)O)C(=O)O)C(=O)NC(C)(C)C(=O)N[C@H](C(=O)N[C@@H](CCCNC(=N)N)C(=O)N[C@@H](CCC(N)=O)C(=O)N[C@@H](CCCNC(=N)N)C(=O)N[C@@H](Cc1ccc(O)cc1)C(N)=O)[C@@H](C)O [Compound 44, Y-Aib-E-G-T-F-T-S-D-Y-S-I-Aib-L-E-K-Q-A-Q-Aib-A-F-V-R-H-L-I-N-K(1,3)-Aib-T-R-Q-R-Y-NH2.C18DA-gGlu-gGlu-gGlu-gGlu-gGlu-AHX-AHX(1,2)]
10.00	7700	9.30	CC[C@H](C)[C@H](NC(=O)[C@H](CC(C)C)NC(=O)[C@H](Cc1c[nH]cn1)NC(=O)[C@H](CCCNC(=N)N)NC(=O)[C@@H](NC(=O)[C@H](Cc1ccccc1)NC(=O)[C@H](C)NC(=O)C(C)(C)NC(=O)[C@H](CCC(N)=O)NC(=O)[C@H](C)NC(=O)[C@H](CCC(N)=O)NC(=O)[C@H](CCC(=O)O)NC(=O)[C@H](CCC(=O)O)NC(=O)[C@H](CC(C)C)NC(=O)C(C)(C)NC(=O)[C@@H](NC(=O)[C@H](CO)NC(=O)[C@H](Cc1ccc(O)cc1)NC(=O)[C@H](CC(=O)O)NC(=O)[C@H](CO)NC(=O)[C@@H](NC(=O)[C@H](Cc1ccccc1)NC(=O)[C@@H](NC(=O)CNC(=O)[C@H](CCC(=O)O)NC(=O)C(C)(C)NC(=O)[C@@H](N)Cc1ccc(O)cc1)[C@@H](C)O)[C@@H](C)O)[C@@H](C)CC)C(C)C)C(=O)N[C@@H](CC(N)=O)C(=O)N[C@@H](CCCCNC(=O)[C@@H](N)CCCCNC(=O)CC[C@H](NC(=O)CC[C@H](NC(=O)CC[C@H](NC(=O)CC[C@H](NC(=O)CC[C@H](NC(=O)CCCCCCCCCCCCCCCCC(=O)O)C(=O)O)C(=O)O)C(=O)O)C(=O)O)C(=O)O)C(=O)NC(C)(C)C(=O)N[C@H](C(=O)N[C@@H](CCCNC(=N)N)C(=O)N[C@@H](CCC(N)=O)C(=O)N[C@@H](CCCNC(=N)N)C(=O)N[C@@H](Cc1ccc(O)cc1)C(N)=O)[C@@H](C)O [Compound 48, Y-Aib-E-G-T-F-T-S-D-Y-S-I-Aib-L-E-E-Q-A-Q-Aib-A-F-V-R-H-L-I-N-K(1,3)-Aib-T-R-Q-R-Y-NH2.C18DA-gGlu-gGlu-gGlu-gGlu-gGlu-eLys(1,2)]
10.00	10000	9.52	CC[C@H](C)[C@H](NC(=O)[C@H](CC(C)C)NC(=O)[C@H](Cc1c[nH]cn1)NC(=O)[C@H](CCCNC(=N)N)NC(=O)[C@@H](NC(=O)[C@H](Cc1ccccc1)NC(=O)[C@H](C)NC(=O)C(C)(C)NC(=O)[C@H](CCC(N)=O)NC(=O)[C@H](C)NC(=O)[C@H](CCC(N)=O)NC(=O)[C@H](CCCCN)NC(=O)[C@H](CCC(=O)O)NC(=O)[C@H](CC(C)C)NC(=O)[C@](C)(CC(C)C)NC(=O)[C@@H](NC(=O)[C@H](CO)NC(=O)[C@H](Cc1ccc(O)cc1)NC(=O)[C@H](CC(=O)O)NC(=O)[C@H](CO)NC(=O)[C@@H](NC(=O)[C@H](Cc1ccccc1)NC(=O)[C@@H](NC(=O)CNC(=O)[C@H](CCC(=O)O)NC(=O)C(C)(C)NC(=O)[C@@H](N)Cc1ccc(O)cc1)[C@@H](C)O)[C@@H](C)O)[C@@H](C)CC)C(C)C)C(=O)N[C@@H](CC(N)=O)C(=O)N[C@@H](CCCCNC(=O)CC[C@H](NC(=O)CC[C@H](NC(=O)CC[C@H](NC(=O)CC[C@H](NC(=O)CC[C@H](NC(=O)CC[C@H](NC(=O)CCCCCCCCCCCCCCCCCCC(=O)O)C(=O)O)C(=O)O)C(=O)O)C(=O)O)C(=O)O)C(=O)O)C(=O)NC(C)(C)C(=O)N[C@H](C(=O)N[C@@H](CCCNC(=N)N)C(=O)N[C@@H](CCC(N)=O)C(=O)N[C@@H](CCCNC(=N)N)C(=O)N[C@@H](Cc1ccc(O)cc1)C(N)=O)[C@@H](C)O [Compound 49, Y-Aib-E-G-T-F-T-S-D-Y-S-I-aMeL-L-E-K-Q-A-Q-Aib-A-F-V-R-H-L-I-N-K(1,3)-Aib-T-R-Q-R-Y-NH2.C20DA-gGlu-gGlu-gGlu-gGlu-gGlu-gGlu(1,2)]
9.40	8800	9.40	CC[C@H](C)[C@H](NC(=O)[C@H](CC(C)C)NC(=O)[C@H](Cc1c[nH]cn1)NC(=O)[C@H](CCCNC(=N)N)NC(=O)[C@@H](NC(=O)[C@H](Cc1ccccc1)NC(=O)[C@H](C)NC(=O)C(C)(C)NC(=O)[C@H](CCC(N)=O)NC(=O)[C@H](C)NC(=O)[C@H](CCC(N)=O)NC(=O)[C@H](C)NC(=O)[C@H](CC(=O)O)NC(=O)[C@H](CC(C)C)NC(=O)C(C)(C)NC(=O)[C@@H](NC(=O)[C@H](CO)NC(=O)[C@H](Cc1ccc(O)cc1)NC(=O)[C@H](CC(=O)O)NC(=O)[C@H](CO)NC(=O)[C@@H](NC(=O)[C@H](Cc1ccccc1)NC(=O)[C@@H](NC(=O)CNC(=O)[C@H](CCC(=O)O)NC(=O)C(C)(C)NC(=O)[C@@H](N)Cc1ccc(O)cc1)[C@@H](C)O)[C@@H](C)O)[C@@H](C)CC)C(C)C)C(=O)N[C@@H](CC(N)=O)C(=O)N[C@@H](CCCCNC(=O)[C@@H](N)CCCCNC(=O)CC[C@H](NC(=O)CC[C@H](NC(=O)CC[C@H](NC(=O)CC[C@H](NC(=O)CC[C@H](NC(=O)CC[C@H](NC(=O)CCCCCCCCCCCCCCCCC(=O)O)C(=O)O)C(=O)O)C(=O)O)C(=O)O)C(=O)O)C(=O)O)C(=O)NC(C)(C)C(=O)N[C@H](C(=O)N[C@@H](CCCNC(=N)N)C(=O)N[C@@H](CCC(N)=O)C(=O)N[C@@H](CCCNC(=N)N)C(=O)N[C@@H](Cc1ccc(O)cc1)C(N)=O)[C@@H](C)O [Compound 55, Y-Aib-E-G-T-F-T-S-D-Y-S-I-Aib-L-D-A-Q-A-Q-Aib-A-F-V-R-H-L-I-N-K(1,3)-Aib-T-R-Q-R-Y-NH2.C18DA-gGlu-gGlu-gGlu-gGlu-gGlu-gGlu-eLys(1,2)]
